Data as given in patent publication US4242327A, “Antibiotic SF-2052 substance and production and use thereof” (Meiji Seika Kaisha, Ltd., priority 1978, dated 1980).
Entries after “also recorded” stand apart in the source; their conditions may differ. Counter-ions that a name gives are not always drawn.

How the values were obtained:
[1] = Solubility; type: physicochemical; details: for solubility in organic solvents: chloroform, ethyl acetate
[2] = Stability; type: physicochemical
[3] = test system: Mycobacterium smegmatis 607 Sm-R; experiment: Minimum inhibitory concentration, standard serial dilution method on Heart Infusion agar; type: cell-based; details: Mycolicibacterium smegmatis, 607SMR, 16 h
Description: (§1) Antibacterial activity of SF-2052 substance of this invention (as the sulfate) to inhibit the growth of various bacteria was estimated according to a standard serial dilution method using Heart Infusion agar as the incubation medium. The incubation was made at a temperature of 37° C. for 16 hours.

[4] = test system: Escherichia coli K-12-R; experiment: as above; type: cell-based; details: 16 h
Description: as §1

[5] = test system: Klebsiella pneumonia; experiment: as above; type: cell-based; details: Klebsiella pneumoniae, 37° C., 16 hours
Description: as §1

[6] = test system: Pseudomonas aeruginosa; experiment: as above; type: cell-based; details: 37° C., 16 hours
Description: as §1

[7] = test system: Proteus vulgaris; experiment: as above; type: cell-based; details: 37° C., 16 hours
Description: as §1

[8] = test system: Staphylococcus aureus 209P; experiment: as above; type: cell-based; details: 37° C., 16 hours
Description: as §1

[9] = test system: Escherichia coli B; experiment: as above; type: cell-based; details: 37° C., 16 hours
Description: as §1

[10] = test system: Escherichia coli; experiment: as above; type: cell-based; details: 37° C., 16 hours
Description: as §1

[11] = test system: Bacillus subtillis PCI-219; experiment: as above; type: cell-based; details: PCI219, 37° C., 16 hours
Description: as §1

[12] = test system: Sarcina lutea; experiment: as above; type: cell-based; details: Micrococcus luteus, 37° C., 16 hours
Description: as §1

[13] = test system: Mycobacterium smegmatis 607 Km-R; experiment: as above; type: cell-based; details: Mycolicibacterium smegmatis, 607KMR, 16 h
Description: as §1

[14] = test system: mice; experiment: Acute toxicity, intravenous injection in mice; type: in vivo; details: in words
Excerpt: (§2) For determination of acute toxicity of the SF-2052 substance sulfate, this was intravenously injected as its solution in isotonic aqueous solution of sodium chloride into several groups of mice. […] According to this invention, therefore, there is further provided an antibacterial composition comprising as the active ingredient an antibacterially effective amount of at least one of the pharmaceutically acceptable acid-addition salts of the SF-2052 substance, in association with a pharmaceutically acceptable liquid or solid carrier. The content of this active ingredient in this antibacterial composition may be in a range of 5% to 50% by weight of the composition.

[15] = Acute toxicity, intravenous injection in mice; type: in vivo; details: mouse, in vivo, solution in isotonic aqueous sodium chloride, estimated
Excerpt: as §2

[16] = test system: gram-negative and gram-positive bacteria; experiment: Antibacterial activity, summary of Table 1; type: cell-based; details: against both gram-negative and gram-positive bacteria
Description: as §1

| SMILES | solubility in organic solvents ([1]; hexane, benzene and ethylether etc.) | solubility in organic solvents ([1]; benzene and ethylether) | solubility in methanol ([1]; methanol) | solubility in water ([1]; water) | stability under acidic to neutral pH conditions ([2]; acidic to neutral pH) | stability under alkaline pH conditions [2] | MIC [3] [µg/mL] | MIC [4] [µg/mL] | MIC [5] [µg/mL] | MIC [6] [µg/mL] | MIC [7] [µg/mL] | MIC [8] [µg/mL] | MIC [9] [µg/mL] | MIC [10] [µg/mL] | MIC [11] [µg/mL] | MIC [12] [µg/mL] | MIC [13] [µg/mL] | acute toxicity [14] | LD50 [15] [mg/kg] | antibacterial activity [16] |
| --- | --- | --- | --- | --- | --- | --- | --- | --- | --- | --- | --- | --- | --- | --- | --- | --- | --- | --- | --- | --- |
| COC1C(O)C(N)C(OC2OC(C(C)N)CCC2N)C(O)C1N(C)C(=O)CNC=N (stereo not drawn) [SF-2052 substance hydrochloride] | substantially insoluble | insoluble | soluble in methanol | Easily soluble in water; also recorded: readily soluble in water | Relatively stable; also recorded: substantially stable | instable | – | – | – | – | – | – | – | – | – | – | – | – | – | – |
| COC1C(O)C(N)C(OC2OC(C(C)N)CCC2N)C(O)C1N(C)C(=O)CNC=N (stereo not drawn) [SF-2052 substance sulfate] | – | – | – | – | – | – | 1.56 | 3.12 | 3.12 | 100 | 1.56 | 3.12 | 6.25 | 12.5 | 1.56 | 0.78 | 100 | substantially non-toxic | 350 | – |
| COC1C(O)C(N)C(OC2OC(C(C)N)CCC2N)C(O)C1N(C)C(=O)CNC=N (stereo not drawn) [SF-2052 substance] | – | – | – | – | – | very instable; also recorded: instable | – | – | – | – | – | – | – | – | – | – | – | – | – | high antibacterial activity against both gram-negative and gram-positive bacteria |
